Biological target: T1, ERRα (Homo sapiens, UniProt P11474)
T1 construct: expressed in transfected cells; host or cells: CV-1 (African green monkey kidney) cells, transient transfection with CMX-GAL4-ERRα
T1 sequence (P11474 174-423): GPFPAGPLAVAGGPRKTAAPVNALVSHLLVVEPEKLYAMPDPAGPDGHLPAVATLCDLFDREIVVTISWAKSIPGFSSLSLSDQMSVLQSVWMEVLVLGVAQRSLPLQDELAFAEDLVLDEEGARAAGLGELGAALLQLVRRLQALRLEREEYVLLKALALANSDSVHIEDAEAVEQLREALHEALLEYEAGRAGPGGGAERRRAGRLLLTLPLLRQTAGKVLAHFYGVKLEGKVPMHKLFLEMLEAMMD
Assay: GAL4-ERRα co-transfection assay (luciferase reporter, CV-1 cells)
Assay type: cell-based
Conditions: for Emax: CV-1, average percent inhibition of ERRα activity relative to control 3-[4-(2,4-Bis-trifluoromethyl-benzyloxy)-3-methoxy-phenyl]-2-cyano-N-(5-trifluoromethyl-[1,3,4]thiadiazol-2-yl)-acrylamide; for IC50: average IC50 for inverse agonist activity in the GAL4-ERRα assay, CV-1 cells
Experimental: Compound activity was also determined in a cell based assay using a GAL4-ERRα chimera to identify active compounds.
CMX-GAL4-ERRα was constructed by cloning nucleotides encoding amino acids 174-423 of ERRα (see GenBank sequence XM048286) into the vector pCMX-GAL4 (Perlmann et al., 1993, Genes & Development 7:1411-1422) comprising nucleotides encoding for amino acids 1-147 of the GAL4 DNA binding domain.
The TK-MH100×4-Luc (GAL4UAS-TK-Luciferase) reporter constructs were constructed by insertion of four copies of the Gal4 UAS (Kang et al. 1993, J. Biol. Chem. 268:9629-9635) into the Hind III site of TK-Luc. The parental plasmid TK-Luc was prepared by insertion of the Herpes simplex virus thymidine kinase gene promoter (−105 to +51) obtained from the plasmid pBLCAT2 by digestion with HindIII and XhoI (described in Luckow et al., 1987, Nuc. Acid. Res. 15:5490) into the plasmid MTV-LUC described by Hollenberg and Evans, 1988, Cell 55:899-906) after removal of MTV-LTR promoter sequence from MTV-LUC via digestion with HindIII and XhoI. Correct cloning was confirmed by restriction digestion and or sequencing.
Assays were performed using CV-1 (African Green Monkey Kidney Cells) (ATCC) cells at 70 percent confluency in T175 flasks grown with media containing 10% charcoal/Dextran-treated fetal bovine serum. Cells were transiently transfected with a DNA mixture containing 12 μg of CMX-GAL4-ERRα (comprising the ligand binding domain), […] of TK-MH100×4-Luc, and 2 μg of CMX-βGal using the transfection reagent FuGENE6 (Roche Molecular Biochemicals, Indianapolis, Ind.) following recommended protocols and instructions provided by the manufacturer. Following incubation with transfection reagents for 5 hours at 37° C., cells were washed, removed from the flasks with 1× Trypsin-EDTA solution (Sigma-Aldrich, Inc. St. Louis, Mo., and then resuspended in media containing 5% charcoal/Dextran-treated fetal bovine serum to give a final concentration of 1.1×10^5 cells/ml.
Assay plates were prepared by dispensing approximately 5 μl of each compound into a well of a 384 well plate to achieve a final compound concentration of approximately 10 μM after addition of cells. Cells were added to assay plates (45 μl) via the use of a Multiprop dispenser (MTX Labs, Inc., Vienna, Va.). The assay plates containing both compounds and screening cells were incubated for approximately 20 hours at 37° C. and 5% CO2 in a tissue culture incubator.
After incubation of the transfected cells with compounds, Lysis buffer (1% Triton X-100, 10% Glycerol, 5 mM DTT, 1 mM EGTA, 25 mM Tricine) and Luciferin assay buffer (0.73 mM ATP, 22.3 mM Tricine, 0.11 mM EDTA, 33.3 mM DTT, 0.2M MgSO4, 11 mM Luciferin, 6.1 mM Coenzyme A, 0.01 mM HEPES) were prepared. Media was removed from the plates and lysis buffer and luciferin assay buffer mixed in a 1:1 ratio and then 30 μl was added to each well (384-well plate). Plates were read on the Northstar (Northstar Technologies, Inc., Acton, Mass.) and data was analyzed using ActivityBase (ID Business Solutions, Ltd., Guildford, Surrey, UK). Luciferase values were normalized with β-galactosidase values using the pCMX-βGal expression plasmid, to normalize for transfection efficiency as described previously (Willy et al., 1995, Gene & Development, 9:1033-1045).
No reporter-driven luciferase activity was observed without ERR transfection, indicating the ERR-dependency of the compounds.
The following table provides in vitro ERRα activity data of representative compounds described in the Examples. Average IC50 values for inverse agonist activity in the GAL4-ERRα assay are provided as follows: V: less than 0.5 μM; W: 0.5 μM-1 μM; X: 1 μM to 2 μM and Y: 2 μM to 5 μM. Average percent inhibition with respect to ERRα activity relative to a control (3-[4-(2,4-Bis-trifluoromethyl-benzyloxy)-3-methoxy-phenyl]-2-cyano-N-(5-trifluoromethyl-[1,3,4]thiadiazol-2-yl)-acrylamide) is provided as follows. […]

| Compound | Emax [%] | IC50 [µM] |
| --- | --- | --- |
| CCCCCN1CCN(C2=NC(=O)C(=Cc3ccc(OCc4ccc(C(F)(F)F)cc4C(F)(F)F)c(OC)c3)S2)CC1 [5-[1-[4-(2,4-Bis-trifluoromethyl-benzyloxy)-3-methoxy-phenyl]-methylidene]-2-(4-pentyl-piperazin-1-yl)-thiazol-4-one] | 80 to 100 | 2 to 5 |
| COc1cc(C=C2SC(N3CCCC(c4nc5cc(C)ccc5[nH]4)C3)=NC2=O)ccc1OCc1ccc(C(F)(F)F)cc1C(F)(F)F (stereo not shown) [5-[1-[4-(2,4-Bis-trifluoromethyl-benzyloxy)-3-methoxy-phenyl]-methylidene]-2-[3-(5-methyl-1H-benzoimidazol-2-yl)-piperidin-1-yl]-thiazol-4-one] | 80 to 100 | 1 to 2 |
| COc1cc(C=C2SC(N3CC(C)OC(C)C3)=NC2=O)ccc1OCc1ccc(C(F)(F)F)cc1C(F)(F)F (stereo not shown) [5-[1-[4-(2,4-Bis-trifluoromethyl-benzyloxy)-3-methoxy-phenyl]-methylidene]-2-(2,6-dimethyl-morpholin-4-yl)-thiazol-4-one] | 100 to 120 | 1 to 2 |
| COc1cc(C=C2SC(N3CCN(Cc4ccc(Cl)cc4)CC3)=NC2=O)ccc1OCc1ccc(C(F)(F)F)cc1C(F)(F)F [5-[1-[4-(2,4-Bis-trifluoromethyl-benzyloxy)-3-methoxy-phenyl]-methylidene]-2-[4-(4-chloro-benzyl)-piperazin-1-yl]-thiazol-4-one] | 60 to 80 | 2 to 5 |
| COc1cc(C=C2SC(N3CCOCC3)=NC2=O)ccc1OCc1ccc(C(F)(F)F)cc1C(F)(F)F [Example 19, 5-[1-[4-(2,4-Bis-trifluoromethyl-benzyloxy)-3-methoxy-phenyl]-methylidene]-2-morpholin-4-yl-thiazol-4-one] | 80 to 100 | 0.5 to 1 |

Other lines, results leading:

| Emax [%] | IC50 [µM] | Compound |
| --- | --- | --- |
| 100 to 120 | < 0.5 | COc1cc(C=C2SC(N3CCN(C)CC3)=NC2=O)ccc1OCc1ccc(C(F)(F)F)cc1C(F)(F)F [Example 18, 5-[1-[4-(2,4-Bis-trifluoromethyl-benzyloxy)-3-methoxy-phenyl]-methylidene]-2-(4-methyl-piperazin-1-yl)-thiazol-4-one] |
| 80 to 100 | 0.5 to 1 | COc1cc(C=C2SC(N3CCN(CC4CCN(C)CC4)CC3)=NC2=O)ccc1OCc1ccc(C(F)(F)F)cc1C(F)(F)F [5-[1-[4-(2,4-Bis-trifluoromethyl-benzyloxy)-3-methoxy-phenyl]-methylidene]-2-[4-(1-methyl-piperidin-4-ylmethyl)-piperazin-1-yl]-thiazol-4-one] |
| 100 to 120 | < 0.5 | COc1cc(C=C2SC(N3CCNCC3)=NC2=O)ccc1OCc1ccc(C(F)(F)F)cc1C(F)(F)F [Example 23, 5-[1-[4-(2,4-Bis-trifluoromethyl-benzyloxy)-3-methoxy-phenyl]-methylidene]-2-piperazin-1-yl-thiazol-4-one] |
| 100 to 120 | < 0.5 | COc1cc(C=C2SC(N3CCN(S(C)(=O)=O)CC3)=NC2=O)ccc1OCc1ccc(C(F)(F)F)cc1C(F)(F)F [Example 29, 5-[1-[4-(2,4-Bis-trifluoromethyl-benzyloxy)-3-methoxy-phenyl]-methylidene]-2-(4-methanesulfonyl-piperazin-1-yl)-thiazol-4-one] |
| 100 to 120 | < 0.5 | COc1cc(C=C2SC(N3CCCC3c3ccccn3)=NC2=O)ccc1OCc1ccc(C(F)(F)F)cc1C(F)(F)F (stereo not shown) [5-[1-[4-(2,4-Bis-trifluoromethyl-benzyloxy)-3-methoxy-phenyl]-methylidene]-2-(2-pyridin-2-yl-pyrrolidin-1-yl)-thiazol-4-one] |
| 100 to 120 | 0.5 to 1 | COc1cc(C=C2SC(N3CCSCC3)=NC2=O)ccc1OCc1ccc(C(F)(F)F)cc1C(F)(F)F [Example 22, 5-[1-[4-(2,4-Bis-trifluoromethyl-benzyloxy)-3-methoxy-phenyl]-methylidene]-2-thiomorpholin-4-yl-thiazol-4-one] |
